The source of these data is PMC11106707, “Design of potent tyrosinase inhibiting N-arylated-4-yl-benzamides bearing 2-aminothiazole-triazole bi-heterocycles: mechanistic insight through enzyme inhibition, kinetics and computational studies” (RSC Advances, 2024).

As a reminder, the Ki is the equilibrium dissociation constant of an inhibitor or competing ligand from its target. One may read the IC50 as the midpoint of a concentration-inhibition curve.

The target of one data set is T1, mushroom tyrosinase (Agaricus bisporus, UniProt C7FF04).
T1 construct: purchased Sigma Chemical, USA
T1 sequence (C7FF04 1-392): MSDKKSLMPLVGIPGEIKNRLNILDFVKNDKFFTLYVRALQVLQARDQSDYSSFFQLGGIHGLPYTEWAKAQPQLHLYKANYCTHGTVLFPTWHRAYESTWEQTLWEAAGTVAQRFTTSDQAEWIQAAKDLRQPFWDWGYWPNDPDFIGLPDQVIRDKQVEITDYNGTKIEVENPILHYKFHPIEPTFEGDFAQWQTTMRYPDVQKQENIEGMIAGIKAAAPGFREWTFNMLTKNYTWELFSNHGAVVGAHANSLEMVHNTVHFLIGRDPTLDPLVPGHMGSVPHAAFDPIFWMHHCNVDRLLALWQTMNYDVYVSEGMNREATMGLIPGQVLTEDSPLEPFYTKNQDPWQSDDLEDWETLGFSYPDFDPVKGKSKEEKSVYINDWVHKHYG
Description: Kinetic analysis of the inhibition of tyrosinase (Lineweaver–Burk / secondary plots). In kind it is biochemical. The note with it: Lineweaver–Burk plots; Vmax decreased, Km remained the same. Here is the method: To understand the inhibitory mechanism of synthetic compounds on the tyrosinase inhibition, kinetic study was performed. […] The kinetic results of the enzyme by the Lineweaver–Burk plot of 1/V versus 1/[S] in the presence of different inhibitor concentrations furnished a series of straight lines (Fig. 13A).
Fig. 13 Lineweaver–Burk plots for inhibition of tyrosinase in the presence of compound 9c. (A) Concentrations of 9c were 0.00, 0.004, 0.008, 0.016 and 0.032 μM, respectively. Substrate L-DOPA concentrations were 0.125, 0.25, 0.5, 1 and 2 mM, respectively. (B) The insets represent the plot of the slope versus inhibitor 9c concentrations to determine inhibition constant. The lines were drawn using linear least squares fit.
A series of experiments were performed to determine the inhibition kinetics of 9c by following the already reported methods.[41,42] The inhibitor concentrations for 9c were 0.00, 0.004, 0.008, 0.016 and 0.032 μM. Substrate L-DOPA concentrations were between 0.125 and 2 mM in all kinetic studies. Pre-incubation and measurement time was the same as discussed in the mushroom tyrosinase inhibition assay protocol. Maximal initial velocity was determined from the initial linear portion of absorbance up to five minutes after addition of enzyme at a 30 s interval. […]
In the case of `Cc1cccc(C)c1NC(=O)c1ccc(CSc2nnc(Cc3csc(N)n3)n2-c2ccccc2)cc1` [9c, 4-[({5-[(2-Amino-1,3-thiazol-4-yl)methyl]-4-phenyl-4H-1,2,4-triazol-3-yl}sulfanyl)methyl]-N-(2,6-dimethylphenyl)benzamide], the Inhibition type result was “non-competitively”.

The same data set, now with this note: calculated from Dixon plots; substrate L-DOPA 0.125–2 mM; read-out: Inhibition constant Ki.
On to `Cc1cccc(C)c1NC(=O)c1ccc(CSc2nnc(Cc3csc(N)n3)n2-c2ccccc2)cc1` [9c, 4-[({5-[(2-Amino-1,3-thiazol-4-yl)methyl]-4-phenyl-4H-1,2,4-triazol-3-yl}sulfanyl)methyl]-N-(2,6-dimethylphenyl)benzamide], for which the inhibitory constant (Ki) is 16 nM.

In another data set the target is tyrosinase.
Test: not given
The note with it: tyrosinase inhibitor reported previously, Fig. 1; cited from earlier work.
Consider `Nn1c(SCc2cc(=O)c(O)co2)nnc1-c1ccccc1Cl`, for which the IC50 was 5350 ± 150 nM.

As to `Clc1ccc(-c2csc(N/N=C/c3ccc[nH]3)n2)cc1`, the IC50 was 7480 ± 190 nM.

On to `COc1cccc(C(=O)NN2C(=O)c3ccccc3NC2c2ccc(Br)cc2)c1` (centres unmarked) [Quinazolinone Benzamide Derivatives], for which the half-maximal inhibitory concentration (IC50) was 1610 ± 324 nM.

With `Cc1ccccc1NC(=O)CSc1nnc(Cc2csc(N)n2)n1-c1ccccc1`, the IC50 was 15.6 ± 2.1 nM.

Take `COc1cc(Cl)ccc1-n1c(SCC(=O)Nc2ccc(Br)cc2)nnc1-c1ccccc1`: the IC50 was 4.8 ± 1.6 nM.

With `O=C(/C=C/c1ccc(O)cc1)NC(=O)c1ccccc1` [N-acryloyl benzamide Derivatives], the half-maximal inhibitory concentration (IC50) is 19200 ± 1140 nM.

A further data set has as its system RBCs (erythrocytes). The experiment in a line: Hemolytic activity. The class given is cell-based. The note with it: bovine, erythrocyte (RBC) suspension, pH 7.4, 20 μL compound solution (10 mg mL^−1) in 180 μL RBCs suspension, room temperature, read-out: Hemolysis (%) (mean ± SEM). Here is the method:
Bovine blood sample was collected in EDTA that was diluted with saline (0.9% NaCl), and centrifuge at 1000 × g for 10 min. The erythrocytes separated diluted in phosphate buffer saline of pH 7.4 and a suspension was made. Add 20 μL of synthetic compounds solution (10 mg mL^−1) in 180 μL of RBCs suspension and incubate for 30 min at room temperature. PBS was used as negative control and Triton 100-X was taken as positive control.[43,44] The percentage of hemolysis was taken as by using formula: [drawing 24]
As for `Cc1cc(C)cc(NC(=O)c2ccc(CSc3nnc(Cc4csc(N)n4)n3-c3ccccc3)cc2)c1` [9e, 4-[({5-[(2-Amino-1,3-thiazol-4-yl)methyl]-4-phenyl-4H-1,2,4-triazol-3-yl}sulfanyl)methyl]-N-(3,5-dimethylphenyl)benzamide], the hemolysis at 30 min, 1 mg/mL was 6.47 ± 0.02%.

Regarding `CC(C)(C)CC(C)(C)c1ccc(OCCO)cc1` [Triton X, reference compound], the hemolysis at 30 min, 1 mg/mL amounted to 94.11 ± 0.01%.

Regarding `CCOc1cccc(NC(=O)c2ccc(CSc3nnc(Cc4csc(N)n4)n3-c3ccccc3)cc2)c1` [9k, 4-[({5-[(2-Amino-1,3-thiazol-4-yl)methyl]-4-phenyl-4H-1,2,4-triazol-3-yl}sulfanyl)methyl]-N-(3-ethoxyphenyl)benzamide], the hemolysis at 30 min, 1 mg/mL was 10.35 ± 0.03%.

For the compound `Cc1ccc(NC(=O)c2ccc(CSc3nnc(Cc4csc(N)n4)n3-c3ccccc3)cc2)cc1` [9h, 4-[({5-[(2-Amino-1,3-thiazol-4-yl)methyl]-4-phenyl-4H-1,2,4-triazol-3-yl}sulfanyl)methyl]-N-(4-dimethylphenyl)benzamide], the hemolysis at 30 min, 1 mg/mL worked out at 2.64 ± 0.04%.

With `Cc1cccc(C)c1NC(=O)c1ccc(CSc2nnc(Cc3csc(N)n3)n2-c2ccccc2)cc1` [9c, 4-[({5-[(2-Amino-1,3-thiazol-4-yl)methyl]-4-phenyl-4H-1,2,4-triazol-3-yl}sulfanyl)methyl]-N-(2,6-dimethylphenyl)benzamide], the hemolysis at 30 min, 1 mg/mL turned out to be 9.41 ± 0.02%.

As for `CCc1ccc(NC(=O)c2ccc(CSc3nnc(Cc4csc(N)n4)n3-c3ccccc3)cc2)cc1` [9j, 4-[({5-[(2-Amino-1,3-thiazol-4-yl)methyl]-4-phenyl-4H-1,2,4-triazol-3-yl}sulfanyl)methyl]-N-(4-ethylphenyl)benzamide], the hemolysis at 30 min, 1 mg/mL came to 8.52 ± 0.05%.

With `Cc1cccc(NC(=O)c2ccc(CSc3nnc(Cc4csc(N)n4)n3-c3ccccc3)cc2)c1` [9g, 4-[({5-[(2-Amino-1,3-thiazol-4-yl)methyl]-4-phenyl-4H-1,2,4-triazol-3-yl}sulfanyl)methyl]-N-(3-methylphenyl)benzamide], the hemolysis at 30 min, 1 mg/mL is 6.52 ± 0.02%.

For the compound `Cc1ccc(NC(=O)c2ccc(CSc3nnc(Cc4csc(N)n4)n3-c3ccccc3)cc2)cc1C` [9d, 4-[({5-[(2-Amino-1,3-thiazol-4-yl)methyl]-4-phenyl-4H-1,2,4-triazol-3-yl}sulfanyl)methyl]-N-(3,4-dimethylphenyl)benzamide], the hemolysis at 30 min, 1 mg/mL turned out to be 8.82 ± 0.04%.

On to `Cc1ccc(C)c(NC(=O)c2ccc(CSc3nnc(Cc4csc(N)n4)n3-c3ccccc3)cc2)c1` [9b, 4-[({5-[(2-Amino-1,3-thiazol-4-yl)methyl]-4-phenyl-4H-1,2,4-triazol-3-yl}sulfanyl)methyl]-N-(2,5-dimethylphenyl)benzamide], for which the hemolysis at 30 min, 1 mg/mL amounted to 11.76 ± 0.03%.

As to `Cc1ccccc1NC(=O)c1ccc(CSc2nnc(Cc3csc(N)n3)n2-c2ccccc2)cc1` [9f, 4-[({5-[(2-Amino-1,3-thiazol-4-yl)methyl]-4-phenyl-4H-1,2,4-triazol-3-yl}sulfanyl)methyl]-N-(2-methylphenyl)benzamide], the hemolysis at 30 min, 1 mg/mL worked out at 12.94 ± 0.03%.

As to `Cc1ccc(NC(=O)c2ccc(CSc3nnc(Cc4csc(N)n4)n3-c3ccccc3)cc2)c(C)c1` [9a, 4-[({5-[(2-Amino-1,3-thiazol-4-yl)methyl]-4-phenyl-4H-1,2,4-triazol-3-yl}sulfanyl)methyl]-N-(2,4-dimethylphenyl)benzamide], the hemolysis at 30 min, 1 mg/mL is 6.47 ± 0.02%.

As for `CCc1ccccc1NC(=O)c1ccc(CSc2nnc(Cc3csc(N)n3)n2-c2ccccc2)cc1` [9i, 4-[({5-[(2-Amino-1,3-thiazol-4-yl)methyl]-4-phenyl-4H-1,2,4-triazol-3-yl}sulfanyl)methyl]-N-(2-ethylphenyl)benzamide], the hemolysis at 30 min, 1 mg/mL came to 9.41 ± 0.05%.
